Assay results reported in ChEMBL document CHEMBL5150022, “Small Molecule Inhibitors of Lymphocyte Perforin as Focused Immunosuppressants for Infection and Autoimmunity” (J Med Chem, 2022).

How the values were obtained:
[1] = biological target: Perforin-1 (Mus musculus) (UniProt P10820); experiment: Inhibition of recombinant Perforin-1 (mouse)
[2] = biological target: Perforin-1 (Mus musculus) (UniProt P10820); experiment: Inhibition of Perforin-1 in human Jurkat cells

Perforin-1 (Mus musculus), sequence (P10820 whole entry, looked up): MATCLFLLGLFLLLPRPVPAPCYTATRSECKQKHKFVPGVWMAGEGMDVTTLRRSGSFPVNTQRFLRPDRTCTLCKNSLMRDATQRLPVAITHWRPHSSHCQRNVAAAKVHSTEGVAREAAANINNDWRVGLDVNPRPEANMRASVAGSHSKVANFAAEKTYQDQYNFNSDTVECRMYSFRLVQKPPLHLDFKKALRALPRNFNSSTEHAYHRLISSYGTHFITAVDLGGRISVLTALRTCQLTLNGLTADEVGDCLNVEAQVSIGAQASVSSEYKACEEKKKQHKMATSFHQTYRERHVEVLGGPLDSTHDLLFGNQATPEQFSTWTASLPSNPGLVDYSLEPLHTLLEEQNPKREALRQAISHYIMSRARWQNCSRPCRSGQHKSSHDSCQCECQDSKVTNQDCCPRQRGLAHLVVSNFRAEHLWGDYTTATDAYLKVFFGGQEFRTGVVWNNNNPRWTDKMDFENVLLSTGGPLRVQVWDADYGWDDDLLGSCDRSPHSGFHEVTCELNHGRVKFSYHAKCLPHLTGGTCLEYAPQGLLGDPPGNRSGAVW

| SMILES | IC50 [1] [µM] | IC50 [2] [µM] |
| --- | --- | --- |
| O=C1NCCc2ccc(-c3ccc(-c4cncc(NS(=O)(=O)c5ccc(F)cc5F)c4)s3)cc21 | > 20 | – |
| O=C1NCCc2cc(-c3ccc(-c4cncc(NS(=O)(=O)c5ccc(F)cc5F)c4)s3)ccc21 | > 20 | – |
| CN1CCc2cc(-c3ccc(-c4cncc(NS(=O)(=O)c5ccc(F)cc5F)c4)s3)ccc2C1=O | > 20 | – |
| Cc1ccc2c(c1)C(c1ccc(-c3cncc(NS(=O)(=O)c4ccc(F)cc4F)c3)s1)N(C)C2=O (stereo not given) | > 20 | – |
| Cc1cc2c(c(=S)[nH]1)C(=O)O/C2=C\c1ccc(C)o1 | – | 2.7 |
